Measured values as given in US20260248879A1, “METHODS OF USING A GCG/GLP1 CO-AGONIST FOR THERAPY” (ELI LILLY AND COMPANY, priority 2022, published 2026).

Key:
patients with T2DM [1] = test: Example 1 study: fasting pharmacodynamic markers (glucose, insulin, C-peptide, glucagon, lipids, HOMA indices); type: in vivo, human; conditions: for mean fasting insulin: baseline 5.892; for mean fasting C-peptide: baseline 532.8; for mean fasting triglyceride: baseline 1.867; for mean fasting LDL cholesterol: baseline 2.796; for mean fasting total cholesterol: baseline 4.971; for mean fasting glucagon: baseline 9.83
Description: Fasting plasma samples for glucose and insulin are explored as secondary PD markers. Exploratory PD may include, but are not limited to plasma glucagon, C-peptide, native OXM, lipid panel (triglycerides, total cholesterol, low-density lipoprotein cholesterol, and high-density lipoprotein cholesterol), beta cell function, and homeostatic model assessment (HOMA) indices.
Plasma concentrations of at least glucose, glucagon, insulin, C-peptide and native OXM, are assayed using validated analytical methods.
In respect of Cohort 1, PD sampling occurs at baseline and Days 1, 3 (48 hours post administration of Compound 1), 8, 22, 29, 50, 57, 78 and 80. […]

patients with T2DM [2] = test: Example 1 study: adverse events; type: in vivo
Source text: Investigators are responsible for monitoring the safety of patients who have entered this study. The investigator is responsible for the appropriate medical care of patients during the study. Investigators document their review of each laboratory safety report. The investigator remains responsible for following, through an appropriate health care option,
AEs that are serious or otherwise medically important, considered related to Compound 1 or the study, or that caused the patient to discontinue Compound 1 before completing the study. The patient is followed until the event resolves, stabilizes with appropriate diagnostic evaluation, or is reasonably explained. The frequency of follow-up evaluations of the AE is left to the discretion of the investigator.
The investigator records all relevant AE and SAE information. After receiving consent from the patient, study site personnel record the occurrence and nature of each patient's preexisting conditions, including clinically significant signs and symptoms of the disease under treatment in the study. Additionally, site personnel record any change in the condition(s) and the occurrence and nature of any AEs.
The investigator interprets and document whether or not an AE has a reasonable possibility of being related to study treatment, or a study procedure, taking into account the disease, concomitant treatment, or pathologies.
A “reasonable possibility” means that there is a potential cause and effect relationship between Compound 1, study device, and/or study procedure and the AE. Planned surgeries should not be reported as AEs unless the underlying medical condition has worsened during the course of the study.
A Serious Adverse Event (SAE) is any AE from this study that results in one of the following: • death • initial or prolonged inpatient hospitalization • a life-threatening experience (i.e., immediate risk of dying) • persistent or significant disability/incapacity • congenital anomaly/birth defect • important medical events that may not be immediately life-threatening or result in death or hospitalization but may jeopardize the patient or may require intervention to prevent one of the other outcomes listed in the definition above.
All AEs occurring after signing the ICF are recorded and assessed for serious criteria.

patients with T2DM [3] = test: Example 1 study: gastric emptying (acetaminophen PK); type: in vivo, human
[4] = Cohort 2, escalated to 10.0 mg, Day 106
[5] = Cohort 2, escalated to 10.0 mg, Day 106 and Day 108
[6] = Cohort 2, escalated to 10.0 mg, Day 108

## CC(C)C[C@H](NC(=O)[C@H](CC(C)C)NC(=O)[C@H](Cc1c[nH]c2ccccc12)NC(=O)[C@H](CCC(=O)O)NC(=O)[C@@H](NC(=O)[C@H](Cc1ccccc1)NC(=O)[C@H](CCC(=O)O)NC(=O)[C@H](CCCCNC(=O)COCCOCCNC(=O)COCCOCCNC(=O)CC[C@H](NC(=O)CCCCCCCCCCCCCCCCCCC(=O)O)C(=O)O)NC(=O)[C@H](C)NC(=O)[C@H](CCCCN)NC(=O)[C@H](CCCCN)NC(=O)[C@H](CCC(=O)O)NC(=O)[C@H](CC(=O)O)NC(=O)[C@H](CC(C)C)NC(=O)[C@H](Cc1ccc(O)cc1)NC(=O)[C@H](CCCCN)NC(=O)[C@H](CO)NC(=O)[C@H](Cc1ccc(O)cc1)NC(=O)[C@H](CC(=O)O)NC(=O)[C@H](CO)NC(=O)[C@@H](NC(=O)[C@H](Cc1ccccc1)NC(=O)[C@@H](NC(=O)CNC(=O)[C@H](CCC(N)=O)NC(=O)C(C)(C)NC(=O)[C@@H](N)Cc1c[nH]cn1)[C@@H](C)O)[C@@H](C)O)C(C)C)C(=O)N[C@@H](CCC(=O)O)C(=O)NCC(=O)NCC(=O)N1CCC[C@H]1C(=O)N[C@@H](CO)C(=O)N[C@@H](CO)C(=O)NCC(N)=O [Compound 1]
Patients with T2DM [1]; Cohort 2, escalated to 8.0 mg, Day 85, baseline 9.108
  mean HOMA-B index: 16.689
Patients with T2DM [1]; Cohort 2, escalated to 8.0 mg
  mean fasting insulin: 6.589 mIU/L
  mean fasting C-peptide: 542 pmol/L
Patients with T2DM [1]; Cohort 2, escalated to 10.0 mg
  approximate decrease of fasting C-peptide from baseline: ~18%
  approximate decrease of fasting insulin from baseline: ~20%
  approximate decrease of fasting total cholesterol from baseline: ~31%
Patients with T2DM [1]; [4]
  mean fasting triglyceride: 0.86 mmol/L
  mean fasting LDL cholesterol: 1.859 mmol/L
  mean fasting total cholesterol: 3.454 mmol/L
  mean fasting insulin: 5.355 mIU/L
  mean fasting glucagon: 1.98 pmol/L
  mean fasting C-peptide: 511 pmol/L
Patients with T2DM [1]; [5]
  approximate decrease of fasting LDL cholesterol from baseline: 33-34%
  approximate decrease of fasting triglyceride from baseline: 47-54%
Patients with T2DM [1]; [6]
  approximate decrease of HOMA-IR from baseline: ~51%
  approximate increase of HOMA-B from baseline: ~33%
  approximate reduction of mean fasting glucose from baseline: ~43%
  mean fasting triglyceride: 0.985 mmol/L
  mean fasting LDL cholesterol: 1.849 mmol/L
  mean fasting total cholesterol: 3.441 mmol/L
  mean fasting insulin: 4.74 mIU/L
  mean fasting glucagon: 1.93 pmol/L
  mean fasting C-peptide: 435 pmol/L
Patients with T2DM [1]; Cohort 2, escalated to 10.0 mg, Day 108, baseline 10.46
  mean fasting glucose: 5.91 mmol/L
Patients with T2DM [1]; Cohort 2, over the dosing period (FIG. 7c)
  mean fasting HDL levels: decreased from baseline
Patients with T2DM [1]; dose 8.0 mg or higher
  reduction of fasting LDL cholesterol: ≥ 30%
Patients with T2DM [1]; dose 10 mg or greater
  reduction of fasting insulin resistance indices: 50%
Patients with T2DM [1]; dose greater than 6.0 mg
  reduction of fasting insulin resistance indices: greater than 25%
  reduction of fasting plasma glucagon: approximately 80%
  reduction of fasting triglyceride: ≥ 50%
Patients with T2DM [1]; dose greater than 8.0 mg
  reduction of fasting total cholesterol: more than 30%
Patients with T2DM [2]; in vivo
  SAE reported, MedDRA preferred term: Sarcoidosis
  abdominal pain, number of participants: 1
  abdominal pain, percentage of participants: 5.6%
  constipation, number of participants: 2
  constipation, percentage of participants: 11.1%
  diarrhea, number of participants: 4
  diarrhea, percentage of participants: 22.2%
  eructation, number of participants: 4
  eructation, percentage of participants: 22.2%
  nausea, number of participants: 7
  nausea, percentage of participants: 38.9%
  number of patients treated with study intervention reporting an SAE: 1
  number of patients with TEAEs: 17
  vomiting, number of participants: 5
  vomiting, percentage of participants: 27.8%
Patients with T2DM [2]; whole study
  deaths: No deaths occurred
Patients with T2DM [3]; Cohort 1, Day 107
  acetaminophen Cmax, Change From Baseline, Mean: 1487.25
  acetaminophen tmax: 1.456 h
Patients with T2DM [3]; Cohort 2, Day 79
  acetaminophen tmax: 3.302 h
  acetaminophen tmax, Change From Baseline, Mean: 0.333 h
